Assays:
HaCaT cells = assay: MTT cytotoxicity assay on HaCaT keratinocytes; assay type: cell-based, human
Experimental: HaCaT keratinocyte cells were exposed to chemical compounds at nine different concentrations (from 3.9 to 995.6 µg/mL) in four replicates of each concentration for 24 and 48 h.
All compounds were dissolved in sterile DMSO (Merck Life Science, Warsaw, Poland) and were sterile-filtered with 0.22 µm pore size sterile disposable syringe filters.
HaCaT cell line (the normal immortalised human keratinocytes) used in the study derived from the 35th passage (the original material created by Prof. Dr. Petra Boukamp and Dr. Norbert Fusenig) was purchased from Cell Line Service GmbH (Eppelheim, Germany). The cells were cultured and propagated as described previously.
The cytotoxicity was assessed with MTT assay according to methodology applied previously.
The following final concentrations (in four replicates per experiment) of the test compounds were tested (µg/mL): 3.9; 7.8; 15.6; 31.1; 62.2; 124.5; 248.9; 497.8, and 995.6. […] Three independent experiments were conducted. The vehicle was cells in the culture medium. The assay was conducted for 24 h and 48 h.

[1] = tested on: Listeria monocytogenes ATCC 19111; assay: Antagonistic activity, diffusion-well method; assay type: cell-based; details: ATCC19111, compounds at 2.5 µM, wells 8 mm, 37 °C, 18 h
Experimental: (§1) The antimicrobial activity of the HESP, ligands ([…], and HTSC), and complexes with HP-β-CD were tested against Gram-positive bacteria (Listeria monocytogenes ATCC 19111, Listeria monocytogenes ATCC 19112, Listeria monocytogenes ATCC 19115, Staphylococcus aureus ATCC 29737, Staphylococcus aureus ATCC 25923, Staphylococcus aureus ATCC 27734) and Gram-negative bacteria (Escherichia coli ATCC 11303, Escherichia coli ATCC 35218, Salmonella Typhimurium, ATCC 14028, Salmonella Enteritidis ATCC 13076, Salmonella Choleraesuis ATCC 7001). The strains were activated from cryobanks by passaging them twice onto a Nutrient Broth (Merck, Darmstadt, Germany). All bacteria were grown for 24 h at 37 °C. Antagonistic activity of the following chemical compounds: […], and […] determined by the diffusion-well method. The test strains were plated on Mueller-Hinton Agar (Merck, Darmstadt, Germany) in the form of a surface layer of bacteria according to the procedures recommended by the European Committee on Antimicrobial Susceptibility Testing EUCAST [74]. The detailed methodology was described in the paper by Sykuła et al.. Bacterial inoculum was prepared from an overnight solid culture. The inoculum density was 1-2 × 10^8 CFU/mL, which corresponds to a McFarland standard of 0.5. The samples of the test compounds were dissolved in 5% (w/w) DMSO to obtain a concentration of 500 μM, and were sterilized using filtration (filter pore width 0.2 μm; (Sartorius AG, Gottingen, Germany). The bacteria inoculum test culture (0.1 mL) smear conducted was on sterile Mueller-Hinton Agar (Merck, Darmstadt, Germany) plates. […] A total of 50 μL of the prepared solutions of the tested compounds at a concentration of 500 μM were added to the wells. The plates prepared in this way were incubated at 37 °C for 18 h. After this time, zones of growth inhibition were read and the result was given in mm. The experiment was carried out in two independent repetitions. The results were expressed in average values and standard deviation. The results were analyzed using a one-way ANOVA and post-hoc Tukey's test.

[2] = tested on: Listeria monocytogenes ATCC 19112; assay: Antagonistic activity, diffusion-well method; assay type: cell-based; details: ATCC19112, compounds at 2.5 µM, wells 8 mm, 37 °C, 18 h
Experimental: as §1

[3] = tested on: Listeria monocytogenes ATCC 19115; assay: Antagonistic activity, diffusion-well method; assay type: cell-based; details: ATCC19115, compounds at 2.5 µM, wells 8 mm, 37 °C, 18 h
Experimental: as §1

[4] = tested on: Salmonella Choleraesuis ATCC 7001; assay: Antagonistic activity, diffusion-well method; assay type: cell-based; details: Salmonella enterica, compounds at 2.5 µM, wells 8 mm, 37 °C, 18 h
Experimental: as §1

[5] = tested on: Salmonella Enteritidis ATCC 13076; assay: Antagonistic activity, diffusion-well method; assay type: cell-based; details: Salmonella enterica, compounds at 2.5 µM, wells 8 mm, 37 °C, 18 h
Experimental: as §1

[6] = tested on: Salmonella Typhimurium ATCC 14028; assay: Antagonistic activity, diffusion-well method; assay type: cell-based; details: Salmonella enterica, compounds at 2.5 µM, wells 8 mm, 37 °C, 18 h
Experimental: as §1

[7] = tested on: Staphylococcus aureus ATCC 27734; assay: Antagonistic activity, diffusion-well method; assay type: cell-based; details: ATCC27734, compounds at 2.5 µM, wells 8 mm, 37 °C, 18 h
Experimental: as §1

[8] = tested on: Escherichia coli ATCC 11303; assay: Minimal inhibition concentration (dilution + diffusion-well); assay type: cell-based; details: ATCC11303, 37 °C, 18 h
Experimental: (§2) The MIC was performed for compounds and strains sensitive to their action in the antagonistic test. Minimum inhibitory concentration was determined by combining the dilution method with the diffusion-well method. Test compounds at a concentration of 500 μM were prepared in 5% (w/w) DMSO. Surface layer of microorganisms, against which antagonistic activity was noted, were prepared in the same way as for the antagonistic test. Then, two-fold sequential dilutions of the test compounds in the range of 500 µM to 62.5 µM were prepared. Wells with a diameter of 8 mm cut in the Mueller–Hinton Agar (Merck, Darmstadt, Germany) with the test strain were added with 50 µL of the prepared dilutions, which corresponded to the following concentrations of the tested compounds: […], 1.25 mM, 0.625 mM, and […]. Petri dishes prepared in this way were incubated at 37 °C for 18 h. After a given time, the MIC value was read. The MIC concentration expressed in µM was the first concentration of the tested compounds at which growth inhibition of the test strain was observed.

[9] = tested on: Staphylococcus aureus ATCC 25923; assay: as above; assay type: cell-based; details: ATCC25923, 37 °C, 18 h
Experimental: as §2

[10] = tested on: Staphylococcus aureus ATCC 29737; assay: as above; assay type: cell-based; details: ATCC29737, 37 °C, 18 h
Experimental: as §2

CC(O)COC[C@H]1O[C@@H]2O[C@H]3[C@H](O)[C@@H](O)[C@@H](O[C@H]4[C@H](O)[C@@H](O)[C@@H](O[C@H]5[C@H](O)[C@@H](O)[C@@H](O[C@H]6[C@H](O)[C@@H](O)[C@@H](O[C@H]7[C@H](O)[C@@H](O)[C@@H](O[C@H]8[C@H](O)[C@@H](O)[C@@H](O[C@H]1[C@H](O)[C@H]2O)O[C@@H]8COCC(C)O)O[C@@H]7COCC(C)O)O[C@@H]6COCC(C)O)O[C@@H]5COCC(C)O)O[C@@H]4COCC(C)O)O[C@@H]3COCC(C)O (stereo partly drawn) [HP-β-CD, (2-Hydroxypropyl)-β-cyclodextrin]
cytotoxicity (maximum over tested concentrations) (HaCaT cells; 24 h, 3.9-995.6 µg/mL): up to 6.6% ± 7.2 | Non-cytotoxic concentration (IC0) (HaCaT cells; 24 h exposure): ≤ 31.1 µg/mL | Non-cytotoxic concentration (IC0) (HaCaT cells; 48 h exposure): ≤ 3.9 µg/mL | zone of inhibition at 2.5 µM [1]: 0 mm | zone of inhibition at 2.5 µM [2]: 0 mm | zone of inhibition at 2.5 µM [3]: 0 mm | zone of inhibition at 2.5 µM [4]: 0 mm | zone of inhibition at 2.5 µM [5]: 0 mm | zone of inhibition at 2.5 µM [6]: 0 mm | zone of inhibition at 2.5 µM [7]: 0 mm | MIC [8]: 2.5 µM | MIC [9]: 2.5 µM | MIC [10]: 2.5 µM

Reference: PMC10574185, “Encapsulation and Biological Activity of Hesperetin Derivatives with HP-β-CD” (Molecules, 2023)
